Reference: patent EP2221291B1, “CYCLOHEXENONE COMPOUNDS FROM ANTRODIA CAMPHORATA AND PHARMACEUTICAL COMPOSITIONS THEREOF USEFUL FOR TREATING AUTOIMMUNE DISEASES” (Golden Biotechnology Corporation, priority 2007, dated 2009)

Assays:
female NZB/WF1 SLE mice = experiment: Changes of proteinuria in SLE mouse model (Bio-Rad protein assay of urine); format: in vivo; conditions: for proteinuria level: after 6 weeks of experiment, oral once per day (cyclohexenone compounds 50 mg/kg; prednisolone 1.25 mg/kg), negative control 89.16 vs. 246 mg/dl
Procedure: (§1) Female NZB/WF1 mice spontaneously develop human SLE-like syndromes, such as generation of antinuclear autoantibodies, proteinuria, and renal toxicity to cause death. The disease is more severe in female mice than in male mice; the morbidity of female mice is also higher than that of male mice. Therefore, female NZB/WF1 mice were used for screening anti-SLE drugs in this study.
(§2) Thirty female NZB/WF1 mice (purchased from Jackson Lab, USA) between 12-24 weeks of age were analyzed biweekly to determine proteinuria levels, monthly to assess the titers of antinuclear autoantibody (ANA). The increased titers of ANA and positive response implicated that female NZB/WF1 mice were going to develop SLE and were ready for grouping. At 22 weeks of age, the animals showing the abovementioned syndromes were randomly divided into 3 groups (10 mice per group, water was administered to negative control group, steroid was given to positive control group, and cyclohexenone compounds of Antrodia camphorata was administered to experiment group), and the start time for the experiment was set as week zero. In addition, ten B6 mice (purchased from National Laboratory Animal Center, Taiwan) without SLE syndrome were normal mice served as blank group. Table 1 Treatment of animal groups
The blank group in Table 1 was B6 mice of no SLE syndrome, which received no treatment and normal diet for natural growth. NZB/WF1 female mice that were able to express SLE syndromes were served in negative control and positive control groups. Mice in the former group received normal water; in the latter were orally medicated with 1.25 mg/kg of prednisolone, the SLE drug. Mice in the experiment group were orally medicated with 50 mg/kg of cyclohexenone compounds from Example 1. […]
SLE patients develop renal inflammation and damage, which cause leakage of protein from kidney into the fluid. […] Ten µl of urine was assayed with Bio-Rad Protein Assay Dye Reagent Concentrate (Bio-Rad Laboratories, USA) and read under […] with an ELISA analyzer to determine the protein concentration with a standard curve.

[1] = test system: anti-dsDNA antinuclear antibodies in female NZB/WF1 SLE mice; experiment: Titers of anti-dsDNA antinuclear antibodies in plasma of SLE mouse model (Mouse Anti-dsDNA IgG ELISA); format: in vivo; conditions: for titer of anti-dsDNA antinuclear antibodies decreased to: week 8, oral once per day (cyclohexenone compounds 50 mg/kg; prednisolone 1.25 mg/kg), reference of the percentage not stated
Procedure: as §1, §2
The blank group in Table 1 was B6 mice of no SLE syndrome, which received no treatment and normal diet for natural growth. NZB/WF1 female mice that were able to express SLE syndromes were served in negative control and positive control groups. Mice in the former group received normal water; in the latter were orally medicated with 1.25 mg/kg of prednisolone, the SLE drug. Mice in the experiment group were orally medicated with 50 mg/kg of cyclohexenone compounds from Example 1. The mice were fed with the abovementioned substances once per day starting at 23 weeks of age, and this period of time was referred to as the first week of this experiment. […]
The titers of dsDNA antinuclear antibodies were determined in this study to assess the effects of cyclohexenone compounds from Antrodia camphorata on SLE mice. […]

SMILES: COC1=C(OC)C(O)C(CC=C(C)CCC=C(C)CCC=C(C)C)C(C)C1=O (stereo not drawn) [4-hydroxy-2,3-dimethoxy-6-methyl-5(3,7,11-trimethyl-dodeca-2,6,10-trienyl)-cyclohex-2-enone]
- proteinuria level (female NZB/WF1 SLE mice): 118.2 mg/dL
- increase in proteinuria level than that before experiment (female NZB/WF1 SLE mice; after 6 weeks, oral 50 mg/kg once per day, negative control 2.76-fold): 1.3 fold
- titers of anti-dsDNA antinuclear antibodies compared with negative group ([1]; during 8 weeks of experiment, oral 50 mg/kg once per day): significantly lower titers
- titer of anti-dsDNA antinuclear antibodies decreased to [1]: 34%

SMILES: C[C@]12C=CC(=O)C=C1CC[C@@H]1[C@@H]2[C@@H](O)C[C@@]2(C)[C@H]1CC[C@]2(O)C(=O)CO [prednisolone, reference compound]
- proteinuria level (female NZB/WF1 SLE mice): 32.6 mg/dL
- titer of anti-dsDNA antinuclear antibodies decreased to [1]: around 50%
